Assay results as given in ChEMBL document CHEMBL1909046, “DrugMatrix in vitro pharmacology data”.

How the values were obtained:
[1] = DRUGMATRIX: Sodium/nucleoside co-transporter radioligand binding (ligand: nitrobenzylthioinosine); assay type: cell membranes, Cavia porcellus, Dunkin-Hartley, Cerebral cortex, Membrane; details: Not Active = under 50% inhibition at 10 µM
[2] = DRUGMATRIX: Calcium Channel Type L, Benzothiazepine radioligand binding (ligand: [3H] Diltiazem); assay type: cell membranes, Rattus norvegicus, Wistar, Brain, Membrane; details: Not Active = under 50% inhibition at 10 µM
[3] = biological target: Vascular endothelial growth factor receptor 1 (Homo sapiens, UniProt P17948); assay type: cell-based; details: huvec; note: in other assays of this panel Not Active means under 50% inhibition at 10 µM
[4] = biological target: T1, C-X-C chemokine receptor type 2 (Homo sapiens, UniProt P25025); assay type: cell membranes, Membrane; details: cho-k1; note: in other assays of this panel Not Active means under 50% inhibition at 10 µM
T1 sequence (P25025 whole entry): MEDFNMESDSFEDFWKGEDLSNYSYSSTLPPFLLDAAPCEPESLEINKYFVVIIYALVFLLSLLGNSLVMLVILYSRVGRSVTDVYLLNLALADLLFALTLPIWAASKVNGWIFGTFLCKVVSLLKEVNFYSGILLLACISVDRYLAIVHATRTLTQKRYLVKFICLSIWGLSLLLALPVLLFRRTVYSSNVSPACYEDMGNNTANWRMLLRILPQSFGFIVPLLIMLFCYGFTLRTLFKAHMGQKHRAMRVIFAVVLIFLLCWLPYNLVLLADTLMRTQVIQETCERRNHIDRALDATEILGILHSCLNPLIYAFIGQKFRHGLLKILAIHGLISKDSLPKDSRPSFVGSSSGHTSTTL

[5] = biological target: Melanocortin receptor 3 (Homo sapiens, UniProt P41968); assay type: cell membranes, Membrane; details: hek293; note: in other assays of this panel Not Active means under 50% inhibition at 10 µM
[6] = biological target: Melanocortin receptor 5 (Homo sapiens, UniProt P33032); assay type: cell membranes, Membrane; details: hek293; note: in other assays of this panel Not Active means under 50% inhibition at 10 µM
[7] = DRUGMATRIX: Nicotinic Acetylcholine radioligand binding (ligand: [125I] Epibatidine); assay type: cell membranes, Membrane; details: imr-32; Not Active = under 50% inhibition at 10 µM
[8] = biological target: T2, Angiotensin-converting enzyme (Oryctolagus cuniculus, UniProt P12822); assay type: tissue-based, Lung
T2 sequence (P12822 whole entry): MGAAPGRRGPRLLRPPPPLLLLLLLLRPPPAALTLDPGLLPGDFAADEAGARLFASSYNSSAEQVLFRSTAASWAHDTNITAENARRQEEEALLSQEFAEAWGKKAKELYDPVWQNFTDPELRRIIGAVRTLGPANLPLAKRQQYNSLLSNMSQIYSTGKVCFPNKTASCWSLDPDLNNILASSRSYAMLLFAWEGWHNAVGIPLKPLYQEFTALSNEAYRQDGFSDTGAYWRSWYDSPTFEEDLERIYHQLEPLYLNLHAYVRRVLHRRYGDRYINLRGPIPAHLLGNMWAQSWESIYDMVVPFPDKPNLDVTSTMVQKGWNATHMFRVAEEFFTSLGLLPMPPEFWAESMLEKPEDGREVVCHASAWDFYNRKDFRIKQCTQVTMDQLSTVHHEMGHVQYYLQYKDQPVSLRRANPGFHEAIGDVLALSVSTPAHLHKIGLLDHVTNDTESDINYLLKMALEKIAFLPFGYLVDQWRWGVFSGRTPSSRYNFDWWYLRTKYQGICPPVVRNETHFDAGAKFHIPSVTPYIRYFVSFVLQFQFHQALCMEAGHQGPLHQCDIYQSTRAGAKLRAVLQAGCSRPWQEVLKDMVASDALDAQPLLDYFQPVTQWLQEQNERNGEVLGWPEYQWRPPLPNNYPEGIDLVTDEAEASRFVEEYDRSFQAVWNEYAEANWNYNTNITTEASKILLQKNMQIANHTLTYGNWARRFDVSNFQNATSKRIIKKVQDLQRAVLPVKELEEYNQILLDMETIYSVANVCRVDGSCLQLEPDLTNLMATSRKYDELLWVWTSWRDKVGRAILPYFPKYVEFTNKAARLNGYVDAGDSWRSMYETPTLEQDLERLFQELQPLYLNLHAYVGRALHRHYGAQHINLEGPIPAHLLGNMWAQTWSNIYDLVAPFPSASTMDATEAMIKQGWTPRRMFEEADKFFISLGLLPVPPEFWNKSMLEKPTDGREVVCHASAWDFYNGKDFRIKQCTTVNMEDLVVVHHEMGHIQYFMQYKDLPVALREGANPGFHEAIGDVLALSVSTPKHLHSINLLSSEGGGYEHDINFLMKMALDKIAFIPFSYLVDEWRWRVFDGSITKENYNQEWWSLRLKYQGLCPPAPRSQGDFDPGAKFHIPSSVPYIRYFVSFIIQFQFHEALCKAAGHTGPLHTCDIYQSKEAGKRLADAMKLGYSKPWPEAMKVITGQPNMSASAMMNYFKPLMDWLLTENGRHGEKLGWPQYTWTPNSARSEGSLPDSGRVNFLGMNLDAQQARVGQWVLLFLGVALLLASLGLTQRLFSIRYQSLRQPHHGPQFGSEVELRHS

[9] = biological target: T3, 5-hydroxytryptamine receptor 1A (Rattus norvegicus, UniProt P19327); assay type: cell membranes, Membrane; details: cho-k1; note: in other assays of this panel Not Active means under 50% inhibition at 10 µM
T3 sequence (P19327 whole entry): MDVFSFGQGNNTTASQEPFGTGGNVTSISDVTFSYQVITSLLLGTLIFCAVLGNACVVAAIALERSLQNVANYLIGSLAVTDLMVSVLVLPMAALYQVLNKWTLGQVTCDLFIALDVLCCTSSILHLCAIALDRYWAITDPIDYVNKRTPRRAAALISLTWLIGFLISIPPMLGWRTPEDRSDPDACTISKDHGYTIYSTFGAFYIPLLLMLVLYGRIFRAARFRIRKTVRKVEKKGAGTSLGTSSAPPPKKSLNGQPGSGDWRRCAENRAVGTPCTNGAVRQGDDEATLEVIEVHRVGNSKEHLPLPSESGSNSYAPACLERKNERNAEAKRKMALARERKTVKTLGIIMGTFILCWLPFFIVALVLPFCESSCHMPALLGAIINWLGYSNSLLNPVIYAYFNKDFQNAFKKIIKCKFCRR

[10] = biological target: Cytochrome P450 2D6 (Homo sapiens, UniProt P10635); details: bti-tn-5b1-4; note: in other assays of this panel Not Active means under 50% inhibition at 10 µM
Cytochrome P450 2D6, sequence (P10635 whole entry): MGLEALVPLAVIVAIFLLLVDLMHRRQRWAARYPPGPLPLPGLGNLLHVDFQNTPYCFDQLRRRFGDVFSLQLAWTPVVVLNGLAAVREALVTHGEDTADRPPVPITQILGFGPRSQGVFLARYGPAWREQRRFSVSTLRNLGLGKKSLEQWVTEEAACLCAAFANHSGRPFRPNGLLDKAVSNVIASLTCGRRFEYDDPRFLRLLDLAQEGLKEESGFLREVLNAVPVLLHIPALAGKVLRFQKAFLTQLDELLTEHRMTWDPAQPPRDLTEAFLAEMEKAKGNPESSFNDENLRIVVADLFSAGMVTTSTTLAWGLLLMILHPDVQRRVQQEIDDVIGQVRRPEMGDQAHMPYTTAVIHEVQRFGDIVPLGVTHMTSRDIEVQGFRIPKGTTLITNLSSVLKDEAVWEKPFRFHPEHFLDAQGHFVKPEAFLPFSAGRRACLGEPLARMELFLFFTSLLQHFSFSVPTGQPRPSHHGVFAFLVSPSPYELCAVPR

Melanocortin receptor 3, sequence (P41968 whole entry): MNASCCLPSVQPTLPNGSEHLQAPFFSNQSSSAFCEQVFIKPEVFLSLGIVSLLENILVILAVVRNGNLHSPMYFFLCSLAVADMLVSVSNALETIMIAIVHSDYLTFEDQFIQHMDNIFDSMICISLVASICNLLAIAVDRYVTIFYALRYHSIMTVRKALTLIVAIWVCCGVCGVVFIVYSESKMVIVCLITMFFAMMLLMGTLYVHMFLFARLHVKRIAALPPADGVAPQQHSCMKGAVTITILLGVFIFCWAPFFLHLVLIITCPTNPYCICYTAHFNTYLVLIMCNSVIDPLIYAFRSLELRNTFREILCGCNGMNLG
Vascular endothelial growth factor receptor 1, sequence (P17948 whole entry): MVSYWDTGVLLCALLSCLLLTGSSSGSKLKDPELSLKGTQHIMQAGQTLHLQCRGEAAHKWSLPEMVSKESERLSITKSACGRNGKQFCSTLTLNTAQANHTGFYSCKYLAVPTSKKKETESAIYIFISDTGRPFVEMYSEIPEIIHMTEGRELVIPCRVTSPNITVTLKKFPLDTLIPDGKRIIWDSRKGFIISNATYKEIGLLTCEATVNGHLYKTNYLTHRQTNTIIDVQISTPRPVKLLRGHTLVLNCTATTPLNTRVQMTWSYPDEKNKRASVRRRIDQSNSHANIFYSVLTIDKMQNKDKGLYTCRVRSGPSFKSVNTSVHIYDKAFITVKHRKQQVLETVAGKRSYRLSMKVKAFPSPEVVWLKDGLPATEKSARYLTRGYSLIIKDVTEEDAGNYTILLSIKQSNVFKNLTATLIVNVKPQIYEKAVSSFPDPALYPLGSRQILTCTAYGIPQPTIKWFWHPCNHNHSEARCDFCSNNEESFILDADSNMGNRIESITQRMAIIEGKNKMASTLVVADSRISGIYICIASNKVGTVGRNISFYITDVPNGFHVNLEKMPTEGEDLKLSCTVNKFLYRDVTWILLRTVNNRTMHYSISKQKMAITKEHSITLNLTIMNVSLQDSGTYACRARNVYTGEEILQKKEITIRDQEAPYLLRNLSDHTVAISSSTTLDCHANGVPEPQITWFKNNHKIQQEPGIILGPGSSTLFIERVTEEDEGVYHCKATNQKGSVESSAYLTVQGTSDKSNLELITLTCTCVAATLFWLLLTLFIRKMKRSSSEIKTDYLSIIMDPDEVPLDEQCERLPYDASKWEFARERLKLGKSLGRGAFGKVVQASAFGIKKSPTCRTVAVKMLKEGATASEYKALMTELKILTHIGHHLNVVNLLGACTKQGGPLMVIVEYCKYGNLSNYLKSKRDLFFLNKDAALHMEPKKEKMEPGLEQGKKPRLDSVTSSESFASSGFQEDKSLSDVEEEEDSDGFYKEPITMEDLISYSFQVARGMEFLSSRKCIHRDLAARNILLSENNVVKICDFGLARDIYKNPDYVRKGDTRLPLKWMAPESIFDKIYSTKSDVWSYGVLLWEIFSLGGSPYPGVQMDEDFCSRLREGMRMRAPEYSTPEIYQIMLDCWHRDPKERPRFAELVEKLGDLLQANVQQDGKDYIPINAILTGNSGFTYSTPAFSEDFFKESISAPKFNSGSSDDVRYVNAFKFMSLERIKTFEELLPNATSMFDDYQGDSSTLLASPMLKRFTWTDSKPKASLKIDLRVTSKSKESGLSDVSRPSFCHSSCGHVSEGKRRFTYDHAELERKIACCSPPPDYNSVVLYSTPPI
Melanocortin receptor 5, sequence (P33032 whole entry): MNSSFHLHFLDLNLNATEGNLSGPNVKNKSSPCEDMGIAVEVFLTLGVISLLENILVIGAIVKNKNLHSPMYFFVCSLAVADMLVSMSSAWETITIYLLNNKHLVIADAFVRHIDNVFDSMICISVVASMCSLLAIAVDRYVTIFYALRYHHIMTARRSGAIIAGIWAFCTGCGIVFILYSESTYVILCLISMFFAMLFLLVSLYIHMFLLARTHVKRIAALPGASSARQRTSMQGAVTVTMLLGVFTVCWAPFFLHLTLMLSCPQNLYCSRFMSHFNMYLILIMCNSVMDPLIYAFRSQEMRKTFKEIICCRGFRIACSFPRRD

CC(=O)CC(c1ccccc1)c1c(O)c2ccccc2oc1=O (configuration not stated) [WARFARIN]
Not Active: IC50 [1] | Ki [1] | IC50 [2] | Ki [2] | IC50 [3] | IC50 [4] | IC50 [5] | IC50 [6] | IC50 [7] | Ki [7] | IC50 [8] | IC50 [9] | IC50 [10] | Ki [10]

C[C@@H](N)[C@H]1CC[C@H](C(=O)Nc2ccncc2)CC1 [Y-27632]
Not Active: IC50 [1] | Ki [1] | IC50 [2] | Ki [2] | IC50 [3] | IC50 [4] | IC50 [5] | IC50 [6] | IC50 [7] | Ki [7] | IC50 [8] | IC50 [9] | IC50 [10] | Ki [10]

[Cl-].[Cl-].[Zn+2] [ZINC CHLORIDE]
Not Active: IC50 [1] | Ki [1] | IC50 [2] | Ki [2] | IC50 [3] | IC50 [4] | IC50 [5] | IC50 [6] | IC50 [7] | Ki [7] | IC50 [8] | IC50 [9] | IC50 [10] | Ki [10]
